Values after ≈ are worked out from the molar mass of the structure shown. Where a name gives a salt, the structure may show the parent alone. Read-outs that look alike come from different tables or passages of the source.
How the values were obtained:
[1] = Kinetic solubility at pH 1 and 7; format: physicochemical; conditions: 1.0% DMSO; for solubility kinetic at 24 h: 23 °C, kinetic from dmso stock
Description: Kinetic Solubility at pH 1 and 7
100-fold dilutions of each compound as DMSO stock solution were prepared by combining 3 μL of DMSO stock with 297 μL of the appropriate media in a Millipore solubility filter plate with 0.45 μM polycarbonate filter membrane using Hamilton Starlet liquid handling. The final DMSO Concentration is 1.0% and maximum theoretical compound concentration is […] (assuming stock concentration of 10 mM). The filter plate was sealed. Following 24-hour incubation at ambient temperature (22.2-23.6° C.), the samples were vacuum filtered, and the filtrates were collected in a 96 well polypropylene plate for analysis. The collection plate was sealed for analysis. Filtrates were injected into the nitrogen detector for quantification. The equimolar nitrogen response of the detector is calibrated using standards which span the dynamic range of the instrument from 0.08 to 4500 μg/ml nitrogen. The filtrates were quantified with respect to this calibration curve. The calculated solubility values are corrected for background nitrogen present in the DMSO, and the media used to prepare the samples

[2] = Thermodynamic solubility in FaSSIF and FeSSIF; format: physicochemical; conditions: 20 hours, ambient temperature; for FaSSIF (pH 6.5): fasted-state simulated intestinal fluid pH 6.5; for FeSSIF (pH 5.0): fed-state simulated intestinal fluid pH 5.0
Description: Thermodynamic Solubility in FASSIF and FESSIF.
The aqueous solubility of compounds over a time of 20 hours was assessed. Solubility was determined at ambient temperature in buffered fasted-state simulated intestinal fluid (FaSSIF, pH 6.5) and buffered fed-state simulated intestinal fluid (FeSSIF, pH 5.0) prepared in-house using BioRelevant Simulated Intestinal Fluid (SIF) powder. Solids were added to FaSSIF or FeSSIF in 1.5-mL Eppendorf tubes, vortexed for 1 minute, then agitated for 20 hours in an Eppendorf ThermoMixer C. To determine concentration in solution, the suspensions were centrifuged for 10 min at 14,800 rpm and supernatants were diluted to a volume of 1 mL with 1:1 v/v acetonitrile:water. All diluted supernatants were analyzed by UPLC using a Waters Acquity UPLC with a PDA UV detector.

[3] = molecular target: T1, alkaline phosphatase (intestinal) (Bos taurus, UniProt P19111); assay: Alkaline phosphatase stability assay; format: in vitro ADME; conditions: 2 μM substrate, 100 ng/mL purified Bovine intestinal alkaline phosphatase, Tris buffer pH 7.8; read-out: ALP half life
T1 construct: purchased MilliPore Sigma
T1 sequence (P19111 20-506 limits assumed): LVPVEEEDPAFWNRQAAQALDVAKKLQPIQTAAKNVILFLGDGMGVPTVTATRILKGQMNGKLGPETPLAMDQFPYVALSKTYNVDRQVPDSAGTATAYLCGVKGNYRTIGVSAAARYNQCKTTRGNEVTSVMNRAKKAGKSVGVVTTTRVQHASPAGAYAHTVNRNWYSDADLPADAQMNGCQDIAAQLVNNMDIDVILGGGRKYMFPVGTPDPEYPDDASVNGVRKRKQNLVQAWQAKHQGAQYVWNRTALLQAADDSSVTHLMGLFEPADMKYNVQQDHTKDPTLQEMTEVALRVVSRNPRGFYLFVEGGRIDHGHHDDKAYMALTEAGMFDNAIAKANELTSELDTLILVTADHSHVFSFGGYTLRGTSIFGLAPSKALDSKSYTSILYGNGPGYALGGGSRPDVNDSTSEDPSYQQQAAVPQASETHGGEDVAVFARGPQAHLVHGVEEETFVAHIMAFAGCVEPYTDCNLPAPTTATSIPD
Description: Alkaline Phosphatase Stability Assay
(§1) Alkaline phosphatase stability assays were carried out using purified Bovine intestinal alkaline phosphatase. Duplicate sets were performed with a TECAN liquid handler. Assay substrate concentrations were 2 μM. Purified Bovine intestinal alkaline phosphatase was acquired through MilliPore Sigma as a lyophilized powder. Reaction mixtures were prepared by the addition of 2 μL compound (400 μM stock solution in DMSO) into wells of a 96-well plate containing […] Tris buffer (100 mM, pH 7.8, 1 mM MgCl2 and 1 mM ZnCl2) with and without 100 ng/mL purified Bovine intestinal alkaline phosphatase. Samples were assessed at time points of 3, 30, 60, 120, 180 and 240 minutes. At each time point, 25 μL of the reaction mixtures were added into a 96-well plate containing 225 μL of quench solution (99% Acetonitrile with 1% Formic Acid and 100 nM Labetalol as internal standard). The plates containing the quench samples were then vortexed at 1100 RPM for 10 minutes and centrifuged at 4500 RPM for 20 minutes. 150 μL of the resulting supernatant was transferred into a 96-well plate containing 150 μL of water and vortexed at 1100 RPM for 3 minutes to mix.
(§2) Samples were analyzed with a Leap HTC Autosampler and a Dionex UltiMate 3000 HPLC system interfaced to a Thermo Q-Exactive mass spectrometer operating in positive ion electrospray mode. A Thermo Scientific Hypersil GOLD (1.9 μM particle size, 50×2.1 mm) HPLC column was used and mobile phase was pumped at 0.5 mL/min. Elution of analytes was achieved by a series of linear gradients of acetonitrile in water containing 0.1% (v/v) formic acid. Quantification was by analyte/internal standard peak area ratio (PAR).

[4] = Assay buffer stability (Tris buffer without alkaline phosphatase); format: physicochemical; conditions: 2 μM substrate, Tris buffer pH 7.8 without alkaline phosphatase
Description: as §1, §2

[5] = In vivo cyno pharmacokinetics; conditions: cynomolgus monkeys
Description: In Vivo Cyno Pharmacokinetics Experiments
In vivo cyno pharmacokinetic experiments of compound Comparator B and Example 1 were assessed as follows.
Compound Comparator B hydrochloride salt was dosed as a 30 mg/kg suspension to cynomolgus monkeys (N=3) using the following formulation: 0.5% Methocel E4M Premium, 0.1% Tween-80, 99.4% Water. Compound Comparator B free base was dosed separately as a 12.5 mg/kg (50 mg-fixed) suspension to cynomolgus monkeys (N=3) using the following formulation: 0.5% Methocel E4M Premium, 0.1% Tween-80, 99.4% Water. Compound Example 1 was dosed separately as a 12.5 mg/kg (50 mg-fixed) suspension to cynomolgus monkeys (N=3) using the following formulation: 0.5% Methocel E4M Premium, 0.1% Tween-80, 99.4% Water. […] As is shown in Table 4, the AUC 0-24 h measured for Comparator B in plasma was higher after dosing with Example 1 than the value measured after dosing with an equivalent dose of Comparator B.

[6] = In vivo rat pharmacokinetics; conditions: rat; Wister Han rats, 100 mg/kg suspension; Comparator C measured in plasma; read-out: Comparator C AUC 0-24 h
Description: In Vivo Rat Pharmacokinetics Experiments
In vivo Wister Han rat pharmacokinetic experiments of compound Comparator C and Example 4 were assessed as follows.
Compound Comparator C was dosed as a 100 mg/kg suspension to Wister Han rats (N=3) using the following formulation:30% captisol, 5% soluplus, 65% pH 2 water. Compound 1170997 was dosed separately as a 100 mg-eq/kg (123 mg/kg) solution to Wister Han rats (N=3) using the following formulation: 0.5% Methocel E4M Premium, 0.1% Tween-80, 99.4% Water. Samples were assessed for the presence of Comparator C.
Comparator C and Example 4. […] As is shown in Table 4, the AUC 0-24 h measured for Comparator C in plasma was higher after dosing with Example 4 than the value measured after dosing with an equivalent dose of Comparator C.

[7] = aqueous buffer, pH 7, 24-hour incubation at ambient temperature, read-out: Kinetic Solubility pH 7
[8] = simulated gastric fluid, pH 1, 24-hour incubation at ambient temperature, read-out: Kinetic Solubility pH 1
[9] = pH 1, 24-hour incubation at ambient temperature
[10] = pH 7, 24-hour incubation at ambient temperature

Molecule	solubility kinetic at 24 h [1, 7] [µM]	solubility kinetic at 24 h [1, 8] [µM]	FaSSIF (pH 6.5) [2] [ug/mL]	FeSSIF (pH 5.0) [2] [ug/mL]	half-life at 2 µM [3] [min]	further results
5-(8-((1S,2S)-2-(1-(2,2,2-trifluoroethyl)-1H-indazol-5-yl)cyclopropyl)imidazo[1,2-b]pyridazin-6-yl)pyrimidine-2,4(1H,3H)-dione [reference compound]			0.7	12.4		Kinetic Solubility pH 1 [1, 9]: 72 uM; Kinetic Solubility pH 7 [1, 10]: 10 uM
CC1(C)CN(c2cc(-c3c[nH]c(=O)[nH]c3=O)nn3ccnc23)CC1(F)F [B, 5-[8-(3,3-difluoro-4,4-dimethyl-pyrrolidin-1-yl)imidazo[1,2-b]pyridazin-6-yl]-1H-pyrimidine-2,4-dione, reference compound]	5 (≈ 1.81 µg/mL)	95 (≈ 34.4 µg/mL)	12	33		
5-(3-fluoro-8-((1S,2S)-2-(1-(2,2,2-trifluoroethyl)-1H-pyrazolo[3,4-b]pyridin-6-yl)cyclopropyl)imidazo[1,2-b]pyridazin-6-yl)pyrimidine-2,4(1H,3H)-dione [reference compound]						Kinetic Solubility pH 1 [1, 9]: 9 uM; Kinetic Solubility pH 7 [1, 10]: 6 uM
O=c1[nH]cc(-c2cc([C@H]3C[C@@H]3c3ccc4cnn(CC(F)(F)F)c4c3)c3ncc(F)n3n2)c(=O)[nH]1 [Comparator C HCl salt, reference compound]						AUC(0-t) [6]: 11.2 µM·h
CC1(C)CN(c2cc(-c3c[nH]c(=O)[nH]c3=O)nn3ccnc23)CC1(F)F [Comparator B HCl salt, 5-[8-(3,3-difluoro-4,4-dimethyl-pyrrolidin-1-yl)imidazo[1,2-b]pyridazin-6-yl]-1H-pyrimidine-2,4-dione, reference compound]						AUC(0-t) ([5]; cynomolgus monkey, 120 mg fixed (30 mg/kg) suspension, Comparator B measured in plasma, read-out: Comparator B AUC 0-24 h): 33.2 µM·h
O=c1[nH]cc(-c2cc([C@H]3C[C@@H]3c3ccc4cnn(CC(F)(F)F)c4n3)c3ncc(F)n3n2)c(=O)[nH]1 [E, reference compound]	8 (≈ 3.89 µg/mL)	94 (≈ 45.7 µg/mL)				
5-(7-((1S,2S)-2-(1-(2,2,2-trifluoroethyl)-1H-indazol-6-yl)cyclopropyl)pyrazolo[1,5-a]pyrimidin-5-yl)pyrimidine-2,4(1H,3H)-dione [reference compound]			0.5	11.1		Kinetic Solubility pH 1 [1, 9]: 65 uM; Kinetic Solubility pH 7 [1, 10]: 7 uM

Now from value to molecule, other results behind:

solubility kinetic at 24 h [1, 7] [µM]	solubility kinetic at 24 h [1, 8] [µM]	FaSSIF (pH 6.5) [2] [ug/mL]	FeSSIF (pH 5.0) [2] [ug/mL]	half-life at 2 µM [3] [min]	Molecule	further results
> 100	89				O=c1c(-c2cc([C@H]3C[C@@H]3c3ccc4cnn(CC(F)(F)F)c4c3)n3nccc3n2)cn(COP(=O)(O)O)c(=O)n1COP(=O)(O)O [Example 7, (2,4-dioxo-5-(7-((1S,2S)-2-(1-(2,2,2-trifluoroethyl)-1H-indazol-6-yl)cyclopropyl)pyrazolo[1,5-a]pyrimidin-5-yl)pyrimidine-1,3(2H,4H)-diyl)bis(methylene) bis(dihydrogen phosphate)]	
> 100	> 100	>1000	>1000	10	CC1(C)CN(c2cc(-c3cn(COP(=O)(O)O)c(=O)[nH]c3=O)nn3ccnc23)CC1(F)F [Example 1, (5-(8-(3,3-difluoro-4,4-dimethylpyrrolidin-1-yl)imidazo[1,2-b]pyridazin-6-yl)-2,4-dioxo-3,4-dihydropyrimidin-1(2H)-yl)methyl dihydrogen phosphate]	half-life at 2 µM [4]: > 1580 min; AUC 0-24 h measured for Comparator B in plasma, compared with dosing an equivalent dose of Comparator B ([5]; 12.5 mg/kg (50 mg-fixed) suspension): higher
> 100	91				O=c1c(-c2cc([C@H]3C[C@@H]3c3ccc4cnn(CC(F)(F)F)c4c3)c3ncc(F)n3n2)cn(COP(=O)(O)O)c(=O)n1COP(=O)(O)O [Example 3, (5-(3-fluoro-8-((1S,2S)-2-(1-(2,2,2-trifluoroethyl)-1H-indazol-6-yl)cyclopropyl)imidazo[1,2-b]pyridazin-6-yl)-2,4-dioxopyrimidine-1,3(2H,4H)-diyl)bis(methylene) bis(dihydrogen phosphate)]	
85	10			8	O=c1[nH]c(=O)n(COP(=O)(O)O)cc1-c1cc([C@H]2C[C@@H]2c2ccc3cnn(CC(F)(F)F)c3c2)n2nccc2n1 [Example 6, (2,4-dioxo-5-(7-((1S,2S)-2-(1-(2,2,2-trifluoroethyl)-1H-indazol-6-yl)cyclopropyl)pyrazolo[1,5-a]pyrimidin-5-yl)-3,4-dihydropyrimidin-1(2H)-yl)methyl dihydrogen phosphate]	half-life at 2 µM [4]: > 1580 min
86	79			14	O=c1[nH]c(=O)n(COP(=O)(O)O)cc1-c1cc([C@H]2C[C@@H]2c2ccc3cnn(CC(F)(F)F)c3n2)c2ncc(F)n2n1 [Example 5, (5-(3-fluoro-8-((1S,2S)-2-(1-(2,2,2-trifluoroethyl)-1H-pyrazolo[3,4-b]pyridin-6-yl)cyclopropyl)imidazo[1,2-b]pyridazin-6-yl)-2,4-dioxo-3,4-dihydropyrimidin-1(2H)-yl)methyl dihydrogen phosphate]	half-life at 2 µM [4]: > 1580 min
89	3			11	O=c1[nH]c(=O)n(COP(=O)(O)O)cc1-c1cc([C@H]2C[C@@H]2c2ccc3cnn(CC(F)(F)F)c3c2)c2nccn2n1 [Example 2, (2,4-dioxo-5-(8-((1S,2S)-2-(1-(2,2,2-trifluoroethyl)-1H-indazol-6-yl)cyclopropyl)imidazo[1,2-b]pyridazin-6-yl)-3,4-dihydropyrimidin-1(2H)-yl)methyl dihydrogen phosphate]	

— patent US11919869B2, “CD73 compounds” (Gilead Sciences, Inc., priority 2021, dated 2024)
